Measurements published in the OligoGym collection.
Bases are written 5' to 3'; sugars and linkages follow in the same order, as letters with counts (s phosphorothioate, o phosphodiester; PS: all linkages phosphorothioate). The collection does not say whether C is 5-methylated. l = locked nucleic acid (LNA); d = 2'-deoxy (DNA)

Target: Tau
Assay: rat primary cortical neurons, FLIPR, 25 uM ASO

| Sequence | calcium oscillation score |
| --- | --- |
| CATTCCCTCCAGAACCATCA (sugars l3 d14 l3, PS) | 34.2 % of control |
| CATTCTATACTTCAGA (sugars l3 d9 l4, PS) | 79 % of control |
| CATTGGAACTGAGCAC (sugars l3 d10 l3, PS) | 8.33 % of control |
| CATTTACCAATTATCTTTAA (sugars l4 d12 l4, PS) | 72 % of control |
| CATTTCTGGAAGGTTCTTTC (sugars l3 d14 l3, PS) | 23.9 % of control |
| CATTTTACTAAAACGC (sugars l4 d8 l4, PS) | 91.6 % of control |
| CATTTTCTGACTCTAAT (sugars l4 d9 l4, PS) | 57.8 % of control |
| CATTTTTGTCTCATTAT (sugars l4 d9 l4, PS) | 51 % of control |
| CATTTTTTATTCATAACTTT (sugars l4 d12 l4, PS) | 59.4 % of control |
| CCAAAACATTCTCACCAAAC (sugars l3 d15 l2, PS) | 68.1 % of control |
| CCAAACTTTTACTCTGA (sugars l4 d10 l3, PS) | 44.5 % of control |
| CCAAATTCCTCATAATCCA (sugars l2 d15 l2, PS) | 75 % of control |
| CCAAATTCCTCATAATCCAA (sugars l2 d15 l3, PS) | 73.4 % of control |
| CCAACTCAACATTACCCTT (sugars l2 d15 l2, PS) | 66.3 % of control |
| CCAACTCTTTGAACACC (sugars l3 d12 l2, PS) | 75.5 % of control |
| CCAACTTTCATCTACTTTTC (sugars l2 d16 l2, PS) | 99.7 % of control |
| CCAAGAGGCACAAGTC (sugars l3 d10 l3, PS) | 74.3 % of control |
| CCAATACTAGATCTAT (sugars l4 d8 l4, PS) | 64.7 % of control |
| CCAATCAATTATATTATAT (sugars l4 d11 l4, PS) | 60.8 % of control |
| CCAATCTTCGACTGGACTCT (sugars l3 d14 l3, PS) | 22.6 % of control |
| CCAATTAACCGAACTG (sugars l3 d10 l3, PS) | 55.2 % of control |
| CCAATTAACCGAACTGCGAG (sugars l3 d14 l3, PS) | 41.4 % of control |

| Sequence | calcium oscillation score |
| --- | --- |
| CCAATTATCTTTAAATTCTA (sugars l4 d13 l3, PS) | 70.7 % of control |
| CCAATTGTCACATTAA (sugars l4 d8 l4, PS) | 63.1 % of control |
| CCACACTTGGAGGTCACCTT (sugars l3 d14 l3, PS) | 4.52 % of control |
| CCACATTTGTCTTTAAC (sugars l3 d10 l4, PS) | 42.9 % of control |
| CCACCATACTTGACTTC (sugars l3 d12 l2, PS) | 91.6 % of control |
| CCACCATACTTGACTTCT (sugars l2 d14 l2, PS) | 76.8 % of control |
| CCACCCAAACTCCAAGTT (sugars l2 d14 l2, PS) | 52 % of control |
| CCACCCATCAATTTGGAAAG (sugars l3 d14 l3, PS) | 58.1 % of control |
| CCACCCTAACACAATCA (sugars l2 d12 l3, PS) | 94 % of control |
| CCACCTCATTAAGATCA (sugars l3 d12 l2, PS) | 56 % of control |
| CCACCTCCTAGAACACA (sugars l2 d13 l2, PS) | 50.9 % of control |
| CCACCTCCTGGTTTAT (sugars l3 d10 l3, PS) | 104 % of control |
| CCACCTCCTGGTTTATGATG (sugars l3 d14 l3, PS) | 19.4 % of control |
| CCACTACAAGCTCCACAT (sugars l2 d14 l2, PS) | 50 % of control |
| CCACTCCATGTCAATC (sugars l4 d10 l2, PS) | 69.3 % of control |
| CCACTCCATGTCAATCA (sugars l4 d11 l2, PS) | 63.5 % of control |
| CCACTGGCGACTTGTACACG (sugars l3 d14 l3, PS) | 16.8 % of control |
| CCACTTTACTTTGCAAC (sugars l4 d11 l2, PS) | 55.8 % of control |
| CCAGACACCACTGGCGACTT (sugars l3 d14 l3, PS) | 128 % of control |
| CCAGACCATCAATTTCC (sugars l2 d13 l2, PS) | 83.3 % of control |
| CCAGATTCCCCAACTC (sugars l2 d12 l2, PS) | 73.3 % of control |
